Reference: US20120065126A1, “Pharmaceutical Compositions Containing Antifungal Peptides” (BASF SE, priority 2009, published 2012)

How the values were obtained:
[1] = system: Candida albicans (DSM 11948); assay: Short-term effect (CFU); type: cell-based
Experimental: (§1) For this purpose, the procedure was as follows.
YM growth medium (Becton, Dickinson and Company, Sparks, USA) 3 g of yeast extract 3 g of malt extract 5 g of peptone 10 g of dextrose make up to 1 liter, set pH 6.2
The growth test was effected as follows: 5 ml of YM medium were inoculated with C. albicans and incubated at 30° C. and 200 rpm overnight.
1.5 ml reaction vessels were filled with 1 ml each of YM medium and inoculated with the C. albicans suspension of the overnight culture. The resulting C. albicans suspension was set at the start of the experiment to an optical density, measured at 600 nm, of 0.1. The concentration of the peptide solution in water or ZPT solution (zinc pyrithione, >96%, Sigma Aldrich) dissolved in DMSO was 2% (w/w).
(§2) The following growth was compared: • C. albicans suspension and addition of P18 peptide with a final concentration in the 1.5 ml reaction vessel of 50 ppm after 5 minutes, 10 minutes, 20 minutes and 60 minutes • C. albicans suspension and addition of P18 peptide with a final concentration in the 1.5 ml reaction vessel of 100 ppm after 5 minutes, 10 minutes, 20 minutes and 60 minutes • C. albicans suspension and addition of P18 peptide with a final concentration in the 1.5 ml reaction vessel of 200 ppm after 5 minutes, 10 minutes, 20 minutes and 60 minutes • C. albicans suspension and addition of P18 peptide with a final concentration in the 1.5 ml reaction vessel of 500 ppm after 5 minutes, 10 minutes, 20 minutes and 60 minutes • C. albicans suspension and addition of P18 peptide with a final concentration in the 1.5 ml reaction vessel of 1000 ppm after 5 minutes, 10 minutes, 20 minutes and 60 minutes • C. albicans suspension and addition of ZPT with a final concentration in the 1.5 ml reaction vessel of 50 ppm after 5 minutes, 10 minutes, 20 minutes and 60 minutes • C. albicans suspension and addition of ZPT with a final concentration in the 1.5 ml reaction vessel of 100 ppm after 5 minutes, 10 minutes, 20 minutes and 60 minutes • C. albicans suspension and addition of ZPT with a final concentration in the 1.5 ml reaction vessel of 200 ppm after 5 minutes, 10 minutes, 20 minutes and 60 minutes • C. albicans suspension and addition of ZPT with a final concentration in the 1.5 ml reaction vessel of 500 ppm after 5 minutes, 10 minutes, 20 minutes and 60 minutes • C. albicans suspension and addition of ZPT with a final concentration in the 1.5 ml reaction vessel of 1000 ppm after 5 minutes, 10 minutes, 20 minutes and 60 minutes
(§3) The 1.5 ml reaction vessels were incubated at room temperature.
After the incubation times specified, the colony forming units (CFU) were determined by streaking 1 μl of each of the suspensions diluted in 20 μl of YM medium and, after incubation for 2 days, counting the colonies.

[2] = system: Trichophyton rubrum (DSM21146); assay: Short-term effect (CFU); type: cell-based
Experimental: as §1
MEP growth medium according to DSMZ:
30 g of malt extract (Becton, Dickinson and Company, Sparks, USA) 3 g of soya peptone (Becton, Dickinson and Company, Sparks, USA) make up to 1 liter, set pH 5.6
The growth test was effected as follows: an agar plate on which the Trichophyton rubrum culture had grown was rinsed with 5 ml of MEP medium.
1.5 ml reaction vessels were each filled with 1 ml of MEP medium and inoculated with 10 μl of the T. rubrum suspension. The concentration of the peptide solution in water or ZPT solution (zinc pyrithione, >96%, Sigma Aldrich) dissolved in DMSO was 2% (w/w).
as §2, with “T. rubrum” for “C. albicans”
as §3
After the incubation times specified, the colony forming units (CFU) were determined by streaking 1 μl of each of the suspensions diluted with 20 μl of MEP medium and, after incubation for 2 days, counting the colonies.

Substance: H-KWKLFKKIPKFLHLAKKF-NH2 [P18, H-KWKLFKKIPKFLHLAKKF-NH2]
- Colony forming units after the incubation time specified ([1]; 50 ppm, 5 minutes): 986 ± 280 CFU
- Colony forming units after the incubation time specified ([1]; 50 ppm, 10 minutes): 944 ± 209 CFU
- Colony forming units after the incubation time specified ([1]; 50 ppm, 20 minutes): 954 ± 14 CFU
- Colony forming units after the incubation time specified ([1]; 50 ppm, 60 minutes): 518 ± 82 CFU
- Colony forming units after the incubation time specified ([1]; 100 ppm, 5 minutes): 718 ± 116 CFU
- Colony forming units after the incubation time specified ([1]; 100 ppm, 10 minutes): 628 ± 112 CFU
- Colony forming units after the incubation time specified ([1]; 100 ppm, 20 minutes): 454 ± 127 CFU
- Colony forming units after the incubation time specified ([1]; 100 ppm, 60 minutes): 25 ± 0 CFU
- Colony forming units after the incubation time specified ([1]; 200 ppm, 5 minutes): 242 ± 122 CFU
- Colony forming units after the incubation time specified ([1]; 200 ppm, 10 minutes): 72 ± 2 CFU
- Colony forming units after the incubation time specified ([1]; 200 ppm, 20 minutes): 29 ± 2 CFU
- Colony forming units after the incubation time specified ([1]; 200 ppm, 60 minutes): 1 ± 1 CFU
- Colony forming units after the incubation time specified ([1]; 500 ppm, 5 minutes): 39 ± 1 CFU
- Colony forming units after the incubation time specified ([1]; 500 ppm, 10 minutes): 5 ± 6 CFU
- Colony forming units after the incubation time specified ([1]; 500 ppm, 20 minutes): 1 ± 1 CFU
- Colony forming units after the incubation time specified ([1]; 500 ppm, 60 minutes): 0 ± 0 CFU
- Colony forming units after the incubation time specified ([1]; 1000 ppm, 5 minutes): 10 ± 2 CFU
- Colony forming units after the incubation time specified ([1]; 1000 ppm, 10 minutes): 1 ± 2 CFU
- Colony forming units after the incubation time specified ([1]; 1000 ppm, 20 minutes): 0 ± 0 CFU
- Colony forming units after the incubation time specified ([1]; 1000 ppm, 60 minutes): 0 ± 0 CFU
- Colony forming units after the incubation time specified ([2]; 50 ppm, 5 minutes): 59 CFU
- Colony forming units after the incubation time specified ([2]; 50 ppm, 10 minutes): 55 CFU
- Colony forming units after the incubation time specified ([2]; 50 ppm, 20 minutes): 35 CFU
- Colony forming units after the incubation time specified ([2]; 50 ppm, 60 minutes): 23 CFU
- Colony forming units after the incubation time specified ([2]; 100 ppm, 5 minutes): 41 CFU
- Colony forming units after the incubation time specified ([2]; 100 ppm, 10 minutes): 22 CFU
- Colony forming units after the incubation time specified ([2]; 100 ppm, 20 minutes): 36 CFU
- Colony forming units after the incubation time specified ([2]; 100 ppm, 60 minutes): 18 CFU
- Colony forming units after the incubation time specified ([2]; 200 ppm, 5 minutes): 32 CFU
- Colony forming units after the incubation time specified ([2]; 200 ppm, 10 minutes): 39 CFU
- Colony forming units after the incubation time specified ([2]; 200 ppm, 20 minutes): 24 CFU
- Colony forming units after the incubation time specified ([2]; 200 ppm, 60 minutes): 5 CFU
- Colony forming units after the incubation time specified ([2]; 500 ppm, 5 minutes): 30 CFU
- Colony forming units after the incubation time specified ([2]; 500 ppm, 10 minutes): 18 CFU
- Colony forming units after the incubation time specified ([2]; 500 ppm, 20 minutes): 9 CFU
- Colony forming units after the incubation time specified ([2]; 500 ppm, 60 minutes): 1 CFU
- Colony forming units after the incubation time specified ([2]; 1000 ppm, 5 minutes): 17 CFU
- Colony forming units after the incubation time specified ([2]; 1000 ppm, 10 minutes): 18 CFU
- Colony forming units after the incubation time specified ([2]; 1000 ppm, 20 minutes): 10 CFU
- Colony forming units after the incubation time specified ([2]; 1000 ppm, 60 minutes): 2 CFU
- Factor of reduction of the living cell count ([2]; cell count 10 times higher (data not shown)): ≤ 2
- Factor of reduction of the living cell count ([2]; concentration range studied (50-1000 ppm), first 60 minutes): ≤ 20

Substance: zinc pyrithione [ZPT]
- Inhibition in words ([1]; 50-1000 ppm, up to 60 minutes): no significant inhibition
- Colony forming units after the incubation time specified ([1]; 50 ppm, 5 minutes): 830 ± 190 CFU
- Colony forming units after the incubation time specified ([1]; 50 ppm, 10 minutes): 1096 ± 51 CFU
- Colony forming units after the incubation time specified ([1]; 50 ppm, 20 minutes): 986 ± 20 CFU
- Colony forming units after the incubation time specified ([1]; 50 ppm, 60 minutes): 982 ± 93 CFU
- Colony forming units after the incubation time specified ([1]; 100 ppm, 5 minutes): 809 ± 100 CFU
- Colony forming units after the incubation time specified ([1]; 100 ppm, 10 minutes): 1048 ± 74 CFU
- Colony forming units after the incubation time specified ([1]; 100 ppm, 20 minutes): 806 ± 105 CFU
- Colony forming units after the incubation time specified ([1]; 100 ppm, 60 minutes): 762 ± 212 CFU
- Colony forming units after the incubation time specified ([1]; 200 ppm, 5 minutes): 676 ± 204 CFU
- Colony forming units after the incubation time specified ([1]; 200 ppm, 10 minutes): 906 ± 331 CFU
- Colony forming units after the incubation time specified ([1]; 200 ppm, 20 minutes): 882 ± 190 CFU
- Colony forming units after the incubation time specified ([1]; 200 ppm, 60 minutes): 711 ± 125 CFU
- Colony forming units after the incubation time specified ([1]; 500 ppm, 5 minutes): 863 ± 35 CFU
- Colony forming units after the incubation time specified ([1]; 500 ppm, 10 minutes): 832 ± 192 CFU
- Colony forming units after the incubation time specified ([1]; 500 ppm, 20 minutes): 710 ± 71 CFU
- Colony forming units after the incubation time specified ([1]; 500 ppm, 60 minutes): 617 ± 134 CFU
- Colony forming units after the incubation time specified ([1]; 1000 ppm, 5 minutes): 806 ± 20 CFU
- Colony forming units after the incubation time specified ([1]; 1000 ppm, 10 minutes): 700 ± 153 CFU
- Colony forming units after the incubation time specified ([1]; 1000 ppm, 20 minutes): 550 ± 88 CFU
- Colony forming units after the incubation time specified ([1]; 1000 ppm, 60 minutes): 482 ± 69 CFU
- Inhibition in words ([2]; 50-1000 ppm, up to 60 minutes): no significant inhibition
- Colony forming units after the incubation time specified ([2]; 50 ppm, 5 minutes): 44 CFU
- Colony forming units after the incubation time specified ([2]; 50 ppm, 10 minutes): 51 CFU
- Colony forming units after the incubation time specified ([2]; 50 ppm, 20 minutes): 51 CFU
- Colony forming units after the incubation time specified ([2]; 50 ppm, 60 minutes): 55 CFU
- Colony forming units after the incubation time specified ([2]; 100 ppm, 5 minutes): 38 CFU
- Colony forming units after the incubation time specified ([2]; 100 ppm, 10 minutes): 54 CFU
- Colony forming units after the incubation time specified ([2]; 100 ppm, 20 minutes): 50 CFU
- Colony forming units after the incubation time specified ([2]; 100 ppm, 60 minutes): 48 CFU
- Colony forming units after the incubation time specified ([2]; 200 ppm, 5 minutes): 44 CFU
- Colony forming units after the incubation time specified ([2]; 200 ppm, 10 minutes): 51 CFU
- Colony forming units after the incubation time specified ([2]; 200 ppm, 20 minutes): 56 CFU
- Colony forming units after the incubation time specified ([2]; 200 ppm, 60 minutes): 49 CFU
- Colony forming units after the incubation time specified ([2]; 500 ppm, 5 minutes): 43 CFU
- Colony forming units after the incubation time specified ([2]; 500 ppm, 10 minutes): 47 CFU
- Colony forming units after the incubation time specified ([2]; 500 ppm, 20 minutes): 51 CFU
- Colony forming units after the incubation time specified ([2]; 500 ppm, 60 minutes): 44 CFU
- Colony forming units after the incubation time specified ([2]; 1000 ppm, 5 minutes): 52 CFU
- Colony forming units after the incubation time specified ([2]; 1000 ppm, 10 minutes): 62 CFU
- Colony forming units after the incubation time specified ([2]; 1000 ppm, 20 minutes): 47 CFU
- Colony forming units after the incubation time specified ([2]; 1000 ppm, 60 minutes): 48 CFU
